# pKi: −log10 of the molar value. The source made the active and inactive calls. The calls are words filed in the database; no cut-off is given here.
# Columns and labels:
# Mus musculus [1] = assay: Toxicity in Swiss mouse assessed as spontaneous locomotor activity at 5 to 20 mg/kg, ip measured during 2 to 6 mins; assay type: organism-based; set-up: route intraperitoneal; settings: in vivo
# [2] = molecular target: D(3) dopamine receptor (Homo sapiens) (UniProt P35462); assay: Displacement of [3H]N-methylspiperone from dopamine D3 receptor (unknown origin) assessed as total radioligand binding at 1.66 x 10^-7 M incubated for 60 mins by microbeta plate reader based method
# [3] = molecular target: T1, 5-hydroxytryptamine receptor 1A (Homo sapiens) (UniProt P08908); assay: Antagonist activity against human 5-HT1A receptor expressed in HEK293 cells assessed as inhibition of […]-induced cAMP levels at 0.1 uM; assay type: functional, cell-based
# T1 sequence (whole entry): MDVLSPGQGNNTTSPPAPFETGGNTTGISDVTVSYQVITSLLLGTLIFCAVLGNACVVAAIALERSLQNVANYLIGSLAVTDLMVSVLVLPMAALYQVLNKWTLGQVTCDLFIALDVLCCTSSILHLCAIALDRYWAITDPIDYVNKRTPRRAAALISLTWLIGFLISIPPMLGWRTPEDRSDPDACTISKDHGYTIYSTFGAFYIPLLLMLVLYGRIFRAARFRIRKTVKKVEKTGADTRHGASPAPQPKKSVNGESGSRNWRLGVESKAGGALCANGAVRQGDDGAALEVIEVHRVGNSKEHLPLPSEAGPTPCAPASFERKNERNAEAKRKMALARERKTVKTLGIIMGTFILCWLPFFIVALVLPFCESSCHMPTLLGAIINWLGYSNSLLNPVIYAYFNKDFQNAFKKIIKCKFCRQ
# [4] = molecular target: D(3) dopamine receptor (Homo sapiens) (UniProt P35462); assay: Displacement of [3H]N-methylspiperone from dopamine D3 receptor (unknown origin) assessed as total radioligand binding at 1 uM incubated for 60 mins by microbeta plate reader based method
# [5] = molecular target: T2, 5-hydroxytryptamine receptor 7 (Homo sapiens, UniProt P34969); assay: Displacement of [3H]LSD from human recombinant 5-HT7 receptor expressed in CHOK1 cells incubated for 60 mins by microbeta plate reader based method; assay type: cell-based, CHO-K1
# [6] = molecular target: T3, 5-hydroxytryptamine receptor 6 (Homo sapiens, UniProt P50406); assay: Displacement of [3H]LSD from human recombinant 5-HT6 receptor expressed in HEK293 cells assessed as total radioligand binding at 1 uM incubated for 60 mins by microbeta plate reader based method; assay type: cell-based
# Mus musculus [7] = assay: Anxiolytic-like activity in Swiss mouse assessed as increase in number of punished crossings measured during 60 seconds period at 0.625 to 10 mg/kg, ip by four-plate test; assay type: functional, organism-based
# [8] = molecular target: T1, 5-hydroxytryptamine receptor 1A (Homo sapiens); assay: Antagonist activity against human 5-HT1A receptor expressed in HEK293 cells assessed as inhibition of […]-induced cAMP levels at 1 uM; assay type: functional, cell-based
# [9] = molecular target: T3, 5-hydroxytryptamine receptor 6; assay: Displacement of [3H]LSD from human recombinant 5-HT6 receptor expressed in HEK293 cells incubated for 60 mins by microbeta plate reader based method; assay type: cell-based
# Mus musculus [10] = assay: Antidepressant-like activity in Swiss mouse assessed as reduction in immobility time at 10 mg/kg, ip administered 60 mins before test; assay type: functional; set-up: scale not given: the % may be the effect or the level left; settings: route intraperitoneal
# Mus musculus [11] = assay: Toxicity in Swiss mouse assessed as spontaneous locomotor activity at 2.5 to 10 mg/kg, ip measured during 2 to 6 mins; assay type: organism-based; set-up: route intraperitoneal; settings: in vivo
# Mus musculus [12] = assay: Anxiolytic-like activity in Swiss mouse assessed as increase in number of punished crossings measured during 60 seconds period at 2.5 mg/kg, ip by four-plate test; assay type: functional; settings: route intraperitoneal
# D(2) dopamine receptor [13] = molecular target: T4, D(2) dopamine receptor (Homo sapiens, UniProt P14416); assay: Antagonist activity against human dopamine D2L receptor expressed in HEK293 cells assessed as inhibition of […]-induced cAMP levels at 0.1 uM; assay type: functional, cell-based
# Mus musculus [14] = assay: Toxicity in Swiss mouse assessed as spontaneous locomotor activity at 0.625 to 10 mg/kg, ip; assay type: organism-based; set-up: dose 0.625-10 mg/kg, route intraperitoneal; settings: in vivo
# D(2) dopamine receptor [15] = molecular target: T4, D(2) dopamine receptor; assay: Agonist activity at human D2L receptor expressed in HEK293 cells assessed as stimulation of cAMP levels at 1 uM relative to dopamine; assay type: functional, cell-based
# [16] = molecular target: T1, 5-hydroxytryptamine receptor 1A (Homo sapiens); assay: Agonist activity at human 5-HT1A receptor expressed in HEK293 cells assessed as stimulation of cAMP levels at 0.1 uM relative to 8-OH-DPAT; assay type: functional, cell-based
# [17] = molecular target: T5, 5-hydroxytryptamine receptor 1A (Rattus norvegicus) (UniProt P19327); assay: Displacement of [3H]8-OH-DPAT from rat hippocampus 5-HT1A receptor assessed as total radioligand binding at 1 uM incubated for 20 mins by microbeta plate reader based method
# T5 sequence (whole entry): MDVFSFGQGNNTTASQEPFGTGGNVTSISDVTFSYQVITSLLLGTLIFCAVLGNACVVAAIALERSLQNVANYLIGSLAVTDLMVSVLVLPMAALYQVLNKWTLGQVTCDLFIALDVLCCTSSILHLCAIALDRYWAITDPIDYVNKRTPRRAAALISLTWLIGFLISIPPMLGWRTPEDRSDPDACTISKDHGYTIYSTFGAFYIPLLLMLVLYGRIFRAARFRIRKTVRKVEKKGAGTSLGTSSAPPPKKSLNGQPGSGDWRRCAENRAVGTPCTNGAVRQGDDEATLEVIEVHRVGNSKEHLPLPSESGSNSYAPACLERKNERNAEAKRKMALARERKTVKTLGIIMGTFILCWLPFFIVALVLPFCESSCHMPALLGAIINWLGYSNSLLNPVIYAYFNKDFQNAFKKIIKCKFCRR
# D(2) dopamine receptor [18] = molecular target: T4, D(2) dopamine receptor; assay: Antagonist activity against human dopamine D2L receptor expressed in HEK293 cells assessed as inhibition of […]-induced cAMP levels at 1 uM; assay type: functional, cell-based
# Mus musculus [19] = assay: Antidepressant-like activity in Swiss mouse assessed as reduction in immobility time at 2.5 to 10 mg/kg, ip administered 60 mins before test; assay type: functional, organism-based
# [20] = molecular target: T6, 5-hydroxytryptamine receptor 1A (Rattus norvegicus, UniProt P19327); assay: Displacement of [3H]8-OH-DPAT from rat hippocampus 5-HT1A receptor incubated for 20 mins by microbeta plate reader based method
# T6 sequence (P19327 whole entry): T5 sequence (whole entry)
# [21] = molecular target: T3, 5-hydroxytryptamine receptor 6; assay: Displacement of [3H]LSD from human recombinant 5-HT6 receptor expressed in HEK293 cells assessed as total radioligand binding at 1.66 x 10^-7 M incubated for 60 mins by microbeta plate reader based method; assay type: cell-based
# D(2) dopamine receptor [22] = molecular target: T4, D(2) dopamine receptor; assay: Agonist activity at human D2L receptor expressed in HEK293 cells assessed as stimulation of cAMP levels at 0.1 uM relative to dopamine; assay type: functional, cell-based
# [23] = molecular target: T5, 5-hydroxytryptamine receptor 1A (Rattus norvegicus); assay: Displacement of [3H]8-OH-DPAT from rat hippocampus 5-HT1A receptor assessed as total radioligand binding at 1.66 x 10^-7 M incubated for 20 mins by microbeta plate reader based method
# [24] = molecular target: T1, 5-hydroxytryptamine receptor 1A (Homo sapiens); assay: Agonist activity at human 5-HT1A receptor expressed in HEK293 cells assessed as stimulation of cAMP levels at 1 uM relative to 8-OH-DPAT; assay type: functional, cell-based
# D(2) dopamine receptor [25] = molecular target: T4, D(2) dopamine receptor; assay: Displacement of [3H]N-methylspiperone from human recombinant dopamine D2 receptor expressed in CHOK1 cells incubated for 60 mins by microbeta plate reader based method; assay type: cell-based, CHO-K1
# [26] = molecular target: T2, 5-hydroxytryptamine receptor 7; assay: Agonist activity at human 5-HT7 receptor expressed in HEK293 cells assessed as stimulation of cAMP levels at 0.1 uM relative to 5HT; assay type: functional, cell-based
# Mus musculus [27] = assay: Antidepressant-like activity in Swiss mouse assessed as reduction in immobility time at 1.25 to 5 mg/kg, ip administered 60 mins before test; assay type: functional, organism-based
# Mus musculus [28] = assay: Toxicity in Swiss mouse assessed as spontaneous locomotor activity at 2.5 to 10 mg/kg, ip; assay type: organism-based; set-up: dose 2.5-10 mg/kg, route intraperitoneal; settings: in vivo
# [29] = molecular target: T2, 5-hydroxytryptamine receptor 7; assay: Agonist activity at human 5-HT7 receptor expressed in HEK293 cells assessed as stimulation of cAMP levels at 1 uM relative to 5HT; assay type: functional, cell-based
# [30] = molecular target: T2, 5-hydroxytryptamine receptor 7; assay: Antagonist activity against human 5-HT7 receptor expressed in HEK293 cells assessed as inhibition of 5-HT-induced cAMP levels at 0.1 uM; assay type: functional, cell-based
# Mus musculus [31] = assay: Anxiolytic-like activity in Swiss mouse assessed as increase in number of punished crossings measured during 60 seconds period at 2.5 to 10 mg/kg, ip by four-plate test; assay type: functional, organism-based
# Mus musculus [32] = assay: Anxiolytic-like activity in Swiss mouse assessed as increase in number of punished crossings measured during 60 seconds period at 5 mg/kg, ip by four-plate test; assay type: functional; settings: route intraperitoneal
# [33] = Selectivity index, ratio of Ki for rat hippocampus 5-HT1A receptor to Ki for human recombinant 5-HT7 receptor
# [34] = molecular target: T2, 5-hydroxytryptamine receptor 7; assay: Antagonist activity against human 5-HT7 receptor expressed in HEK293 cells assessed as inhibition of 5-HT-induced cAMP levels at 1 uM; assay type: functional, cell-based
# Sequence of D(3) dopamine receptor (Homo sapiens) (P35462 whole entry): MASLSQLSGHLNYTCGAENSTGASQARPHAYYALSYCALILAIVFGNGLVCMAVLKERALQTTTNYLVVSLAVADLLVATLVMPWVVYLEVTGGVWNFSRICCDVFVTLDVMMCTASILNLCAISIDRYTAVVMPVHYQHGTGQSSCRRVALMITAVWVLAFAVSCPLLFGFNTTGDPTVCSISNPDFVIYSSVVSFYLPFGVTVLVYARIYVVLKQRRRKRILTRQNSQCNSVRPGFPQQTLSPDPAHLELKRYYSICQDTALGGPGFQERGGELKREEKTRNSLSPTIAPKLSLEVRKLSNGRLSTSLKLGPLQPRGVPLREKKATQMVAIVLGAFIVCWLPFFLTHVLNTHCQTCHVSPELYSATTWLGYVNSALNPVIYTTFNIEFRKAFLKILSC
# T4 sequence (P14416 whole entry): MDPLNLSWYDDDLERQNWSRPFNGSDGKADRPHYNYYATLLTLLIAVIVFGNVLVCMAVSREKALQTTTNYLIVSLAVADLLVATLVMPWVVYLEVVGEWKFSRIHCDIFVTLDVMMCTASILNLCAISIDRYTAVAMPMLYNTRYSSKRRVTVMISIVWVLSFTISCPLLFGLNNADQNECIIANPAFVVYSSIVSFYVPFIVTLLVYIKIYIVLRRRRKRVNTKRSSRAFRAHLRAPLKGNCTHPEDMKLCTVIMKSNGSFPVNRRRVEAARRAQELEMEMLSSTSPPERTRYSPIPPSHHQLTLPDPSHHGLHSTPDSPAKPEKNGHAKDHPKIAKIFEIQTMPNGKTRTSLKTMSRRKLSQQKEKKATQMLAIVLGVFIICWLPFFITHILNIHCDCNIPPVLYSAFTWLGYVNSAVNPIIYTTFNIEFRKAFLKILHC
# T3 sequence (P50406 whole entry): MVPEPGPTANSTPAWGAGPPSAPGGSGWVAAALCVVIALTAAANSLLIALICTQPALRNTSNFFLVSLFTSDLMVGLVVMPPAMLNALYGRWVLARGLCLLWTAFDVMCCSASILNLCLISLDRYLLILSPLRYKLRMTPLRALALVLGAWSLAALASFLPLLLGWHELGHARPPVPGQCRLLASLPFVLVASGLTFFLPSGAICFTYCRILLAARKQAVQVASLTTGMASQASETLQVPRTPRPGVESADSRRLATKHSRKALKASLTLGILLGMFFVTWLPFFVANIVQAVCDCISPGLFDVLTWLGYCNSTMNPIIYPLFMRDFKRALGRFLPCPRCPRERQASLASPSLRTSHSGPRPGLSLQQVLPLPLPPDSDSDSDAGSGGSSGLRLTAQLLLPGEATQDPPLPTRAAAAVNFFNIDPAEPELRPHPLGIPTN
# T2 sequence (P34969 whole entry): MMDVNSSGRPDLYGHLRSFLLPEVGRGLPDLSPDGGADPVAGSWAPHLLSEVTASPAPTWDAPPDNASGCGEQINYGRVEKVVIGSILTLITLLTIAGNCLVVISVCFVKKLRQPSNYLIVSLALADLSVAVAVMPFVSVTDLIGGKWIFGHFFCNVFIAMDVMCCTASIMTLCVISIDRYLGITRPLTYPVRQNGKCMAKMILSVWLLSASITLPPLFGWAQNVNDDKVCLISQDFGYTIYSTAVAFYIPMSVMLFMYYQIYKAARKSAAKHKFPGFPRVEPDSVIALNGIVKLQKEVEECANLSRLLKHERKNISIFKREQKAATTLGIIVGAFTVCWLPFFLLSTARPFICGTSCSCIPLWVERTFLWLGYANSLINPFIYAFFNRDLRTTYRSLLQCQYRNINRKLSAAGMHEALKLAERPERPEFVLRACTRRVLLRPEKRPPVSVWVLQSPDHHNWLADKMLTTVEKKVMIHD
Activity [2] [%],inhibition [3] [%],Activity [4] [%],pKi [5],Activity [6] [%],inhibition [8] [%],inhibition (D(2) dopamine receptor [13]) [%],Activity (D(2) dopamine receptor [15]) [%],Activity [16] [%],Activity [17] [%],inhibition (D(2) dopamine receptor [18]) [%],pKi [20],Activity [21] [%],Activity (D(2) dopamine receptor [22]) [%],Activity [23] [%],Activity [24] [%],pKi (D(2) dopamine receptor [25]),Compound,further results
,,,,,,,,,,,,,,,,,CN(C)CCCN1c2ccccc2CCc2ccccc21.Cl [IMIPRAMINE HYDROCHLORIDE],Activity (Mus musculus [1]): Non-toxic
43,102,34,6.42,68,105,38.4,37.6,55.7,42,73.8,> 9.00,81,35.3,75,61.5,7.57,Cc1cccc(N2CCN(CCCCn3c(C)cn4c5c(=O)n(C)c(=O)n(C)c5nc34)CC2)c1C,Activity (Mus musculus [7]): Active; pKi [9]: 6.29; Activity (Mus musculus [10]): 20%; Activity (Mus musculus [11]): Non-toxic; Activity (Mus musculus [12]): 67%; Activity (Mus musculus [14]): Non-toxic; Activity (Mus musculus [19]): Active
81,68.3,39,7.37,60,91.8,12.2,7.7,22.9,9,71.2,8.05,87,12.3,47,32.5,7.62,Cn1c(=O)c2c(nc3n(CCCCCN4CCN(c5ccccc5O)CC4)c(-c4ccccc4)cn23)n(C)c1=O,Activity [26]: 5.1%; Activity (Mus musculus [27]): inactive; Activity (Mus musculus [28]): Non-toxic; Activity [29]: 5.3%; inhibition [30]: 11%; Activity (Mus musculus [31]): Active; Activity (Mus musculus [32]): 90%; Ratio Ki [33]: 0.2; inhibition [34]: 58.9%

# — ChEMBL document CHEMBL3421538, “Structure-activity relationships and molecular studies of novel arylpiperazinylalkyl purine-2,4-diones and purine-2,4,8-triones with antidepressant and anxiolytic-like activity” (Eur J Med Chem, 2015)
